Reference: PubChem BioAssay AID330 (DTP/NCI, 2004)
Where “and” joins values, the source holds several entries; their conditions need not be identical. Identical values can stand only once. Inconclusive results and toxic doses are left out. The calls were made as follows: active = survival T/C of 150% or more; inactive = T/C below 125% in these data.

Tested on: P388 leukemia ip, CD2F1 mice, survival T/C
Experiment: NCI In Vivo Anticancer Drug Screen. Data for tumor model P388 Leukemia (intraperitoneal) in CD2F1 (CDF1) mice
Conditions: endpoint: median survival time, higher = longer survival
Summary of the method: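 Mice carrying the transplanted tumor received test compound or vehicle. Survival was recorded in each group, and the value is the treated-group measurement divided by that of the vehicle-treated control group.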

[1] = dose: 50.0 mg/kg/injection, schedule: Q01DX009 (ip), vehicle: Klucel (hydroxypropylcellulose) (HPC)
[2] = dose: 100.0 mg/kg/injection, schedule: Q01DX009 (ip), vehicle: saline with Tween-80
[3] = dose: 100.0 mg/kg/injection, schedule: Q01DX001 (ip), vehicle: saline with Tween-80
[4] = dose: 200.0 mg/kg/injection, schedule: Q01DX001 (ip), vehicle: saline with Tween-80
[5] = dose: 400.0 mg/kg/injection, schedule: Q01DX001 (ip), vehicle: saline with Tween-80
[6] = dose: 50.0 mg/kg/injection, schedule: Q01DX009 (ip), vehicle: saline
[7] = dose: 100.0 mg/kg/injection, schedule: Q01DX009 (ip), vehicle: saline
[8] = dose: 200.0 mg/kg/injection, schedule: Q01DX009 (ip), vehicle: saline
[9] = dose: 60.0 mg/kg/injection, schedule: Q01DX005 (ip), vehicle: saline with Tween-80
[10] = dose: 120.0 mg/kg/injection, schedule: Q01DX005 (ip), vehicle: saline with Tween-80
[11] = dose: 240.0 mg/kg/injection, schedule: Q01DX005 (ip), vehicle: saline with Tween-80
[12] = dose: 50.0 mg/kg/injection, schedule: Q01DX005 (ip), vehicle: saline with Tween-80
[13] = dose: 100.0 mg/kg/injection, schedule: Q01DX005 (ip), vehicle: saline with Tween-80
[14] = dose: 200.0 mg/kg/injection, schedule: Q01DX005 (ip), vehicle: saline with Tween-80
[15] = dose: 100.0 mg/kg/injection, schedule: Q01DX009 (ip), vehicle: Klucel (hydroxypropylcellulose) (HPC)
[16] = dose: 60.0 mg/kg/injection, schedule: Q01DX005 (ip), vehicle: saline
[17] = dose: 120.0 mg/kg/injection, schedule: Q01DX005 (ip), vehicle: saline
[18] = dose: 240.0 mg/kg/injection, schedule: Q01DX005 (ip), vehicle: saline

Measured: T/C

ClC(Cl)(Cl)C1=NCc2nnn(Cc3ccccc3)c2N1
inactive: dose: 6.25 mg/kg/injection, schedule: Q01DX009 (ip), vehicle: Klucel (hydroxypropylcellulose) (HPC) 113 % of control | dose: 6.25 mg/kg/injection, schedule: Q01DX009 (ip), vehicle: saline with Tween-80 118 % of control | dose: 12.5 mg/kg/injection, schedule: Q01DX009 (ip), vehicle: Klucel (hydroxypropylcellulose) (HPC) 114 % of control | dose: 12.5 mg/kg/injection, schedule: Q01DX009 (ip), vehicle: saline with Tween-80 115 % of control and 117 % of control | dose: 25.0 mg/kg/injection, schedule: Q01DX009 (ip), vehicle: saline with Tween-80 105 % of control and 106 % of control | [1] 104 % of control | [2] 110 % of control | dose: 200.0 mg/kg/injection, schedule: Q01DX009 (ip), vehicle: saline with Tween-80 100 % of control and 113 % of control | dose: 400.0 mg/kg/injection, schedule: Q01DX009 (ip), vehicle: saline with Tween-80 96 % of control

O=C(N/N=C/c1cc(Cl)cc(Cl)c1[O-])c1ccccc1.O=C(N/N=C/c1cc(Cl)cc(Cl)c1[O-])c1ccccc1.[Mn+2]
inactive: [3] 98 % of control | [4] 99 % of control | [5] 105 % of control

CCCSCN(CC)CC
inactive: [6] 95 % of control | [7] 90 % of control | [8] 114 % of control

COc1ccc2c(c1)N(S(=O)(=O)c1ccc(C)cc1)C/C(=C\N1CCN(C)CC1)C2=O
inactive: dose: 50.0 mg/kg/injection, schedule: Q01DX005 (ip), vehicle: Klucel (hydroxypropylcellulose) (HPC) 97 % of control | dose: 100.0 mg/kg/injection, schedule: Q01DX005 (ip), vehicle: Klucel (hydroxypropylcellulose) (HPC) 108 % of control | dose: 200.0 mg/kg/injection, schedule: Q01DX005 (ip), vehicle: Klucel (hydroxypropylcellulose) (HPC) 101 % of control

COCCOCOCCCC#C[Si](C)(C)C
inactive: [9] 100 % of control | [10] 106 % of control | [11] 106 % of control

CC(Oc1ccc(Cl)cc1Cl)C(=O)NC(Cc1ccccc1)C(=O)O (stereo not given)
inactive: [12] 102 % of control | [13] 110 % of control | [14] 102 % of control

CCCNC(=S)N/N=C\C(C)=N\Nc1ccc(Cl)cc1
inactive: dose: 100.0 mg/kg/injection, schedule: Q04DX003 (ip), vehicle: saline 95 % of control | dose: 200.0 mg/kg/injection, schedule: Q04DX003 (ip), vehicle: saline 96 % of control | dose: 400.0 mg/kg/injection, schedule: Q04DX003 (ip), vehicle: saline 97 % of control

CN(C)Cc1cc(CN(C)C)c(O)c(CN(C)C)c1
inactive: dose: 50.0 mg/kg/injection, schedule: Q01DX009 (ip), vehicle: saline with Tween-80 88 % of control | [2] 93 % of control

O=C1CSC(c2cccc(O)c2O)N1c1nncs1 (stereo not given)
inactive: [9] 111 % of control | [10] 96 % of control | [11] 96 % of control

Cc1ccc(NC2OC(CO)C(O)C(O)C2O)cc1 (stereo not given)
inactive: [6] 104 % of control | [7] 111 % of control | [8] 98 % of control

Cc1ccc(Br)c(C(O)(C(F)(F)F)C(F)(F)F)c1C
inactive: [1] 107 % of control | [15] 106 % of control

Cc1nn(-c2ccccc2)c2oc3ccccc3c(=O)c12
inactive: [16] 92 % of control | [17] 100 % of control | [18] 96 % of control

O=C(c1cc2c(cc1Br)OCO2)N1CCc2cc([N+](=O)[O-])ccc21
inactive: dose: 12.5 mg/kg/injection, schedule: Q01DX009 (ip), vehicle: other 118 % of control | dose: 25.0 mg/kg/injection, schedule: Q01DX009 (ip), vehicle: other 110 % of control | dose: 50.0 mg/kg/injection, schedule: Q01DX009 (ip), vehicle: other 105 % of control | dose: 200.0 mg/kg/injection, schedule: Q01DX009 (ip), vehicle: other 104 % of control

[O-]/[N+](=C\c1ccccc1)c1ccccc1
inactive: dose: 100.0 mg/kg/injection, schedule: Q04DX003 (ip), vehicle: saline with Tween-80 104 % of control | dose: 200.0 mg/kg/injection, schedule: Q04DX003 (ip), vehicle: saline with Tween-80 99 % of control

COc1cc(NC(C)CCCN)c2ncccc2c1 (stereo not given)
inactive: dose: 12.5 mg/kg/injection, schedule: Q01DX009 (ip), vehicle: saline sonified 118 % of control | dose: 25.0 mg/kg/injection, schedule: Q01DX009 (ip), vehicle: saline sonified 109 % of control | dose: 50.0 mg/kg/injection, schedule: Q01DX009 (ip), vehicle: saline sonified 90 % of control

COc1ccc(NC2=CC(=S)NC(C)(C)C2)cc1
inactive: [6] 92 % of control | [7] 104 % of control | [8] 104 % of control

N#CC1=C(C#N)SCCCS1
inactive: [6] 100 % of control | [7] 100 % of control | [8] 99 % of control

CCOc1nc(N)nc(C)c1N=Nc1ccc(O)cc1
inactive: [16] 100 % of control | [17] 99 % of control | [18] 96 % of control

CN(C)C(=O)ONC(=O)c1ccccc1
inactive: [1] 105 % of control | [15] 109 % of control | dose: 200.0 mg/kg/injection, schedule: Q01DX009 (ip), vehicle: Klucel (hydroxypropylcellulose) (HPC) 108 % of control

Cc1ccc(/C2=C(\c3ccc(C)cc3)N(c3ccccc3)CCCCN2c2ccccc2)cc1
inactive: dose: 100.0 mg/kg/injection, schedule: Q04DX002 (ip), vehicle: Klucel (hydroxypropylcellulose) (HPC) 99 % of control | dose: 200.0 mg/kg/injection, schedule: Q04DX002 (ip), vehicle: Klucel (hydroxypropylcellulose) (HPC) 99 % of control | dose: 400.0 mg/kg/injection, schedule: Q04DX002 (ip), vehicle: Klucel (hydroxypropylcellulose) (HPC) 99 % of control

O=C(N/N=C/c1cc(Cl)cc(Cl)c1[O-])c1ccccc1.O=C(N/N=C/c1cc(Cl)cc(Cl)c1[O-])c1ccccc1.[Cu+2]
inactive: [3] 94 % of control | [4] 92 % of control | [5] 104 % of control

O=C1NC(=O)C2(OC3c4ccccc4C=CN3C3=C2C(=O)CCC3)C(=O)N1 (stereo not given)
inactive: [12] 94 % of control | [13] 94 % of control | [14] 92 % of control
